Laboratory results: ChEMBL document CHEMBL1201862, “PubChem BioAssay data set” (2004)
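The compound was tested at five concentrations on cells cultured in 96-well plates, with a 48-hour exposure period. At the GI50, growth is halved.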 Calls of active or inactive are those of the source. Rule as the data show it: active = GI50 up to about 1.1 µM and inactive = higher.

Experiments:
Test in all cases: NCI-60 cell line screen, 48 h
[1] = test system: SN12C
[2] = test system: EKVX
[3] = test system: SNB-19
[4] = test system: OVCAR-3
[5] = test system: RXF 393
[6] = test system: CCRF-CEM
[7] = test system: A498
[8] = test system: 786-0
[9] = test system: SF-268
[10] = test system: SK-OV-3
[11] = test system: HT-29
[12] = test system: TK-10
[13] = test system: LOX IMVI
[14] = test system: A549
[15] = test system: OVCAR-8
[16] = test system: SR
[17] = test system: HCT-116

Measured: GI50

COc1ccccc1NC(=O)C(CC(C(=O)Nc1ccccc1OC)/C(C)=N/NC(=O)c1ccccc1O)/C(C)=N/NC(=O)c1ccccc1O (configuration not stated)
inactive: [1] > 100 µM | [2] 72.9 µM | [3] 61.7 µM | [4] 54.1 µM | [5] 38.8 µM | [6] 33 µM | [7] 65 µM | [8] > 100 µM | [9] > 100 µM | [10] > 100 µM | [11] > 100 µM | [12] > 100 µM | [13] > 100 µM | [14] 82.4 µM | [15] 75 µM

CC(Cn1c2c3ccccc3ccc2c2oc(=O)c3ccccc3c21)N(C)C (configuration not stated)
inactive: [2] > 100 µM | [3] > 100 µM | [4] > 100 µM | [6] > 100 µM | [8] > 100 µM | [9] > 100 µM | [16] > 100 µM | [11] > 100 µM | [12] > 100 µM | [17] > 100 µM | [13] > 100 µM | [14] > 100 µM | [15] > 100 µM

CSc1ccc2c(cc1=O)[C@@H](NC(=O)c1ccc(F)cc1)CCc1cc(O)c(O)c(O)c1-2
inactive: [1] > 100 µM | [2] > 100 µM | [3] > 100 µM | [4] > 100 µM | [5] > 100 µM | [6] 56 µM | [7] > 100 µM | [8] > 100 µM | [9] > 100 µM | [10] > 100 µM | [11] > 100 µM | [12] > 100 µM | [17] > 100 µM | [13] > 100 µM | [14] > 100 µM | [15] > 100 µM

CCCCCCCCCCCCCCCCP(=O)(OC)OC
inactive: [1] 17.2 µM | [2] 15 µM | [3] 15.2 µM | [4] 17.8 µM | [5] 19 µM | [6] 22.3 µM | [8] 17.6 µM | [16] 19.1 µM | [10] 15.2 µM | [11] 17.5 µM | [12] 17.1 µM | [17] 18.9 µM | [13] 16.9 µM | [14] 17.7 µM | [15] 15.8 µM

O=c1[nH]c2cc([N+](=O)[O-])ccc2nc1/C(=N/Nc1ccccc1)C(O)c1ccccc1Cl (configuration not stated)
inactive: [1] > 100 µM | [2] 67.3 µM | [3] > 100 µM | [4] 59.3 µM | [5] > 100 µM | [6] 33.5 µM | [8] > 100 µM | [9] > 100 µM | [10] > 100 µM | [11] 46 µM | [12] > 100 µM | [17] > 100 µM | [13] > 100 µM | [14] 41.9 µM | [15] > 100 µM

[O-]c1c2cc(-[n+]3c(-c4ccccc4)cc(-c4ccccc4)cc3-c3ccccc3)cc1COCCOCCOCCOCCOC2
inactive: [1] 38.8 µM | [2] 33.9 µM | [3] 73.5 µM | [6] 43.6 µM | [8] 54.5 µM | [9] 29 µM | [16] 26.2 µM | [10] 57.8 µM | [11] 35.6 µM | [12] 57.5 µM | [17] 32.8 µM | [13] 43 µM | [14] 60 µM | [15] 31.5 µM

O=[N+]([O-])c1cccc(C2=NN(c3ccccc3)C3c4ccccc4OCC23)c1 (configuration not stated)
inactive: [2] > 100 µM | [3] > 100 µM | [4] > 100 µM | [5] > 100 µM | [6] 91 µM | [7] > 100 µM | [8] > 100 µM | [9] > 100 µM | [10] > 100 µM | [11] > 100 µM | [12] > 100 µM | [17] 27.2 µM | [13] > 100 µM | [14] > 100 µM | [15] > 100 µM

Cc1cc(N(CCC#N)CCC#N)ccc1/C=C/C(=O)Nc1cccc(Cl)c1
inactive: [1] > 100 µM | [2] > 100 µM | [3] > 100 µM | [4] > 100 µM | [6] 85.7 µM | [7] > 100 µM | [8] > 100 µM | [9] > 100 µM | [10] > 100 µM | [11] > 100 µM | [12] > 100 µM | [17] > 100 µM | [13] 52.2 µM | [14] > 100 µM | [15] > 100 µM

Cc1ccc(Nc2nc(-c3ccc(-c4ccc([N+](=O)[O-])cc4)o3)cs2)cc1
inactive: [1] 73.6 µM | [3] > 100 µM | [4] > 100 µM | [8] 68.5 µM | [9] > 100 µM | [16] 11.4 µM | [10] > 100 µM | [11] 28.4 µM | [12] 25.4 µM | [17] 67.1 µM | [13] 33.8 µM | [14] 52.7 µM | [15] 40.6 µM

COc1ccc(/C=C2\CCCCC2=O)cc1
inactive: [1] > 100 µM | [2] > 100 µM | [4] > 100 µM | [6] > 100 µM | [7] > 100 µM | [8] > 100 µM | [9] > 100 µM | [10] > 100 µM | [11] > 100 µM | [12] > 100 µM | [17] > 100 µM | [13] > 100 µM | [14] > 100 µM | [15] > 100 µM

N=C(N)NS(=O)(=O)c1ccc(NC(=O)c2cccc3c(Nc4ccc(S(=O)(=O)N=C(N)N)cc4)c4ccc(Cl)cc4nc23)cc1
inactive: [1] 75.5 µM | [2] 96.8 µM | [3] 48.4 µM | [4] 60.5 µM | [5] > 100 µM | [6] 55 µM | [7] > 100 µM | [8] > 100 µM | [9] 48.4 µM | [10] 32.1 µM | [11] > 100 µM | [12] > 100 µM | [17] 38.7 µM | [13] 37.2 µM | [14] 53 µM | [15] 61.2 µM

O=C(O)C#CCO
inactive: [1] > 100 µM | [2] > 100 µM | [3] > 100 µM | [4] > 100 µM | [5] > 100 µM | [6] > 100 µM | [7] > 100 µM | [8] > 100 µM | [9] > 100 µM | [10] > 100 µM | [11] > 100 µM | [12] > 100 µM | [17] > 100 µM | [13] > 100 µM | [14] > 100 µM | [15] > 100 µM

O=C1C(Br)=CC2(C=C1Br)CCNC1=C2C(=O)c2ccccc2C1=O
inactive: [1] 6.68 µM | [2] 38.5 µM | [4] 29.6 µM | [5] 3.84 µM | [6] 3.57 µM | [8] 11.9 µM | [9] 11.2 µM | [16] 2.95 µM | [10] 30.4 µM | [11] 18.7 µM | [12] 33.3 µM | [17] 4.13 µM | [13] 4.24 µM | [14] 22.8 µM | [15] 4.21 µM
